According to US8487102B2, “Pyrrazolopyridine compounds as dual NK1/NK3 receptor antagonists” (Hoffmann-La Roche Inc., priority 2010, dated 2013):

Assays:
human NK1 receptor = target: T1, human NK1 receptor (Homo sapiens, UniProt P25103); assay: NK1 receptor binding assay, [3H]substance P displacement; conditions: human NK1 receptors in CHO cells, [3H]substance P 0.6 nM
T1 construct: expressed in transfected cells; host or cells: CHO cells (Semliki virus expression system), membrane suspension

[1] = target: T2, Recombinant human NK3 (hNK3) receptor (Homo sapiens, UniProt P29371); assay: NK3 receptor binding assay, [3H]SR142801 displacement; conditions: hNK3 receptor membranes, [3H]SR142801 0.3 nM
T2 construct: expressed in transfected cells; membrane preparations of the recombinant receptor
T2 sequence (P29371 1-465): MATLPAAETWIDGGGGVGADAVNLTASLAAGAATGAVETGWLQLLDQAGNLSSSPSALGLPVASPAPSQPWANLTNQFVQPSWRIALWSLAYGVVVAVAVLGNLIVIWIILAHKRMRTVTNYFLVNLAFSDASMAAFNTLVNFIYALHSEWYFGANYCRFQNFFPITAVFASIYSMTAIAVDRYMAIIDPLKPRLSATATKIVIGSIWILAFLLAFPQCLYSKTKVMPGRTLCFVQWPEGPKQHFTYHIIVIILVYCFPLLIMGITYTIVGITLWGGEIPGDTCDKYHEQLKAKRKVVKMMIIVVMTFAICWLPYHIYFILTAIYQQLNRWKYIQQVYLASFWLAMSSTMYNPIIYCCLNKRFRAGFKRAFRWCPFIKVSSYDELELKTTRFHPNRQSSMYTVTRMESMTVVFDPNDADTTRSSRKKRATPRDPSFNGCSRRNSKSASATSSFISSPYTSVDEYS
Protocol: Recombinant human NK3 (hNK3) receptor affinity was determined in a 96 well plate assay, using [^3H]SR142801 (final concentration 0.3 nM) to radiolabel the hNK3 receptor in the presence of 10 concentrations of competing compound or buffer. Non specific binding was determined using 10 μM SB222200. Assay buffer consisted of Tris-HCl (50 mM, pH 7.4), BSA (0.1%), MnCl2 (4 mM) and phosphoramidon (1 μM). Membrane preparations of hNK3 receptors (approximately 2.5 μg/well in a 96 well plate) were used to initiate the incubation for 90 min at room temperature. This assay was terminated by rapid filtration under vacuum through GF/C filters, presoaked for 90 min with PEI (0.3%), with 3×0.5 ml washes of ice-cold Tris buffer (50 mM, pH 7.4) containing 0.1% BSA. The radioactivity retained on the filters was measured by scintillation counting. All assays were performed in duplicate in at least two separate experiments.

[2] = phase II trial, cited from earlier work

T1 sequence (P25103 whole entry): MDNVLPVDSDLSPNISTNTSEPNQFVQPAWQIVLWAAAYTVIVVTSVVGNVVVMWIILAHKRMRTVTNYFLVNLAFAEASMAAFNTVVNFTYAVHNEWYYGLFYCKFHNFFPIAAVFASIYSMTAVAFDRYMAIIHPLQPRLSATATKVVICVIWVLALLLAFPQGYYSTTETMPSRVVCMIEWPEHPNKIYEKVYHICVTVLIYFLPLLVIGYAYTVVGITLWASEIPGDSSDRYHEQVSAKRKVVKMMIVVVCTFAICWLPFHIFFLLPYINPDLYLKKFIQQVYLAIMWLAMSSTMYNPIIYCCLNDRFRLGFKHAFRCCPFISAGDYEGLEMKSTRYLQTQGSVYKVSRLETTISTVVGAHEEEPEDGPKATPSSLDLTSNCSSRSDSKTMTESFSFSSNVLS

| SMILES | Ki (human NK1 receptor) | Ki [1] | activity on positive symptoms of schizophrenia ([2]; altered behaviour, delusion, hallucinations, extreme emotions, excited motor activity, incoherent speech) | activity in the treatment of negative symptoms of schizophrenia ([2]; depression, anhedonia, social isolation or memory and attention deficits) |
| --- | --- | --- | --- | --- |
| Cc1cc(F)ccc1-c1c(N(C)C(=O)C(C)(C)c2cc(C(F)(F)F)cc(C(F)(F)F)c2)cnc2c1cnn2C [Example 7, 2-(3,5-Bis-trifluoromethyl-phenyl)-N-[4-(4-fluoro-2-methyl-phenyl)-1-methyl-1H-pyrazolo[3,4-b]pyridin-5-yl]-N-methyl-isobutyramide] | 0.0008 µM | 0.0189 µM | – | – |
| CCn1ncc2c(-c3cccc(F)c3F)c(N(C)C(=O)C(C)(C)c3cc(C(F)(F)F)cc(C(F)(F)F)c3)cnc21 [Example 9, 22-(3,5-Bis-trifluoromethyl-phenyl)-N-[4-(2,3-difluoro-phenyl)-1-ethyl-1H-pyrazolo[3,4-b]pyridin-5-yl]-N-methyl-isobutyramide] | 0.0102 µM | 0.779 µM | – | – |
| CCn1ncc2c(-c3ccccc3Cl)c(N(C)C(=O)C(C)(C)c3cc(C(F)(F)F)cc(C(F)(F)F)c3)cnc21 [Example 3, 2-(3,5-Bis-trifluoromethyl-phenyl)-N-[4-(2-chloro-phenyl)-1-ethyl-1H-pyrazolo[3,4-b]pyridin-5-yl]-N-methyl-isobutyramide] | 0.0006 µM | 0.0229 µM | – | – |
| CC(=O)N(C)C1(c2ccccc2)CCN(CCC[C@]2(c3ccc(Cl)c(Cl)c3)CCCN(C(=O)c3ccccc3)C2)CC1 [SR 142,801, Osanetant] | – | – | active | inactive |
| Cc1cc(F)ccc1-c1c(N(C)C(=O)C(C)(C)c2cc(C(F)(F)F)cc(C(F)(F)F)c2)cnc2c1cnn2S(=O)(=O)N(C)C [Example 37, 2-(3,5-Bis-trifluoromethyl-phenyl)-N-[1-dimethylsulfamoyl-4-(4-fluoro-2-methyl-phenyl)-1H-pyrazolo[3,4-b]pyridin-5-yl]-N-methyl-isobutyramide] | 0.0075 µM | 0.0785 µM | – | – |
| Cc1cc(F)ccc1-c1c(N(C)C(=O)C(C)(C)c2cc(C(F)(F)F)cc(C(F)(F)F)c2)cnc2c1cnn2Cc1ccccc1 [Example 11, N-[1-Benzyl-4-(4-fluoro-2-methyl-phenyl)-1H-pyrazolo[3,4-b]pyridin-5-yl]-2-(3,5-bis-trifluoromethyl-phenyl)-N-methyl-isobutyramide] | 0.0013 µM | 0.077 µM | – | – |
| Cc1cc(F)ccc1-c1c(N(C)C(=O)C(C)(C)c2cc(C(F)(F)F)cc(C(F)(F)F)c2)cnc2[nH]ncc12 [Example 28, 2-(3,5-Bis-trifluoromethyl-phenyl)-N-[4-(4-fluoro-2-methyl-phenyl)-1H-pyrazolo[3,4-b]pyridin-5-yl]-N-methyl-isobutyramide] | 0.0016 µM | 0.0273 µM | – | – |
| CCn1ncc2c(-c3ccccc3)c(N(C)C(=O)C(C)(C)c3cc(C(F)(F)F)cc(C(F)(F)F)c3)cnc21 [Example 10, 2-(3,5-Bis-trifluoromethyl-phenyl)-N-(1-ethyl-4-phenyl-1H-pyrazolo[3,4-b]pyridin-5-yl)-N-methyl-isobutyramide] | 0.0025 µM | 0.532 µM | – | – |
| CCn1ncc2c(-c3cccc(F)c3Cl)c(N(C)C(=O)C(C)(C)c3cc(C(F)(F)F)cc(C(F)(F)F)c3)cnc21 [Example 14, 2-(3,5-Bis-trifluoromethyl-phenyl)-N-[4-(2-chloro-3-fluoro-phenyl)-1-ethyl-1H-pyrazolo[3,4-b]pyridin-5-yl]-N-methyl-isobutyramide] | 0.0016 µM | 0.0387 µM | – | – |
| CCn1ncc2c(-c3ccc(C#N)cc3)c(N(C)C(=O)C(C)(C)c3cc(C(F)(F)F)cc(C(F)(F)F)c3)cnc21 [Example 23, 2-(3,5-Bis-trifluoromethyl-phenyl)-N-[4-(4-cyano-phenyl)-1-ethyl-1H-pyrazolo[3,4-b]pyridin-5-yl]-N-methyl-isobutyramide] | 0.0049 µM | 0.979 µM | – | – |
| CCn1ncc2c(-c3ccc(F)cc3C)c(N(C)C(=O)C(C)(C)c3cc(F)cc(C(F)(F)F)c3)cnc21 [Example 26, 2-(3-fluoro-5-trifloromethyl-phenyl)-N-[1-ethyl-4-(4-fluoro-2-methyl-phenyl)-1H-pyrazolo[3,4-b]pyridin-5-yl]-N-methyl-isobutyramide] | 0.0042 µM | 0.0942 µM | – | – |
| CCn1ncc2c(-c3ccc(Cl)c(Cl)c3)c(N(C)C(=O)C(C)(C)c3cc(C(F)(F)F)cc(C(F)(F)F)c3)cnc21 [Example 4, 2-(3,5-Bis-trifluoromethyl-phenyl)-N-[4-(3,4-dichloro-phenyl)-1-ethyl-1H-pyrazolo[3,4-b]pyridin-5-yl]-N-methyl-isobutyramide] | 0.0004 µM | 0.0868 µM | – | – |
| Cc1cc(F)ccc1-c1c(N(C)C(=O)C(C)(C)c2cc(C(F)(F)F)cc(C(F)(F)F)c2)cnc2c1cnn2S(C)(=O)=O [Example 36, 2-(3,5-Bis-trifluoromethyl-phenyl)-N-[4-(4-fluoro-2-methyl-phenyl)-1-methanesulfonyl-1H-pyrazolo[3,4-b]pyridin-5-yl]-N-methyl-isobutyramide] | 0.0006 µM | 0.0151 µM | – | – |
| CCn1ncc2c(-c3ccc(F)cc3OC)c(N(C)C(=O)C(C)(C)c3cc(C(F)(F)F)cc(C(F)(F)F)c3)cnc21 [Example 12, 2-(3,5-Bis-trifluoromethyl-phenyl)-N-[1-ethyl-4-(4-fluoro-2-methoxy-phenyl)-1H-pyrazolo[3,4-b]pyridin-5-yl]-N-methyl-isobutyramide] | 0.0007 µM | 0.0414 µM | – | – |
| CCn1ncc2c(-c3ccc(F)cc3C)c(N(C)C(=O)C(C)(C)c3cccc(Cl)c3)cnc21 [Example 29, 2-(3-Chloro-phenyl)-N-[1-ethyl-4-(4-fluoro-2-methyl-phenyl)-1H-pyrazolo[3,4-b]pyridin-5-yl]-N-methyl-isobutyramide] | 0.0345 µM | 0.308 µM | – | – |
| CCn1ncc2c(-c3ccc(F)cc3Cl)c(N(C)C(=O)C(C)(C)c3cc(C(F)(F)F)cc(C(F)(F)F)c3)cnc21 [Example 19, 2-(3,5-Bis-trifluoromethyl-phenyl)-N-[4-(2-chloro-4-fluoro-phenyl)-1-ethyl-1H-pyrazolo[3,4-b]pyridin-5-yl]-N-methyl-isobutyramide] | 0.0003 µM | 0.0138 µM | – | – |
| CCn1ncc2c(-c3cccc(Cl)c3)c(N(C)C(=O)C(C)(C)c3cc(C(F)(F)F)cc(C(F)(F)F)c3)cnc21 [Example 17, 2-(3,5-Bis-trifluoromethyl-phenyl)-N-[4-(3-chloro-phenyl)-1-ethyl-1H-pyrazolo[3,4-b]pyridin-5-yl]-N-methyl-isobutyramide] | 0.0042 µM | 0.355 µM | – | – |
| COCC(=O)n1ncc2c(-c3ccc(F)cc3C)c(N(C)C(=O)C(C)(C)c3cc(C(F)(F)F)cc(C(F)(F)F)c3)cnc21 [Example 32, 2-(3,5-Bis-trifluoromethyl-phenyl)-N-[4-(4-fluoro-2-methyl-phenyl)-1-(2-methoxy-acetyl)-1H-pyrazolo[3,4-b]pyridin-5-yl]-N-methyl-isobutyramide] | 0.0019 µM | 0.0284 µM | – | – |
| Cc1cc(F)ccc1-c1c(N(C)C(=O)C(C)(C)c2cc(C(F)(F)F)cc(C(F)(F)F)c2)cnc2c1cnn2C(=O)C1CC1 [Example 33, 2-(3,5-Bis-trifluoromethyl-phenyl)-N-[1-cyclopropanecarbonyl-4-(4-fluoro-2-methyl-phenyl)-1H-pyrazolo[3,4-b]pyridin-5-yl]-N-methyl-isobutyramide] | 0.0016 µM | 0.0099 µM | – | – |
| CCn1ncc2c(-c3ccc(F)cc3C)c(N(C)C(=O)C(C)(C)c3cc(C(F)(F)F)cc(C(F)(F)F)c3)cnc21 [Example 2, 2-(3,5-Bis-trifluoromethyl-phenyl)-N-[1-ethyl-4-(4-fluoro-2-methyl-phenyl)-1H-pyrazolo[3,4-b]pyridin-5-yl]-N-methyl-isobutyramide] | 0.0011 µM | 0.0257 µM | – | – |
